Patent publication US10273305B2, “Bispecific CXCR4-CD4 polypeptides with potent anti-HIV activity” (Ablynx N.V., priority 2015, dated 2019)
Where “and” joins values, the source holds several entries; their conditions need not be identical. Identical values can stand only once. Like-named read-outs stand apart in the source and are kept apart here.

Experiments:
HUT-78/HIV-1 NL4.3 = experiment: HIV-1-mediated cell-cell fusion, HUT-78/NL4.3 with SupT1 cells
NL4.3 281F12 res. = experiment: microbe, parasite or virus in culture; type: cell-based, HIV-1; conditions: Human immunodeficiency virus 1, PBMC, read-out: IC50 PBMC NL4.3 281F12 res. n = 2
AMD3100 resistant virus = experiment: microbe, parasite or virus in culture; type: cell-based, HIV-1; conditions: Human immunodeficiency virus 1, MT4, read-out: IC50 MT-4 AMD-3100 res.
[1] = system: dual-tropic R5/X4 HIV-1 HE; experiment: HIV-1 HE infection of PBMCs, p24; type: cell-based; conditions: Human immunodeficiency virus 1, PBMC, read-out: IC50 PBMC HE R5/X4 n = 9
[2] = system: dual-tropic (R5/X4) HIV-1 strain HE; experiment: microbe, parasite or virus in culture; conditions: Human immunodeficiency virus 1, MT4, read-out: IC50 MT-4 HE R5/X4 n = 3
[3] = system: HIV-1 CI#17 clinical isolate (clade B); experiment: HIV-1 CI#17 infection of PBMCs, p24; type: cell-based; conditions: Human immunodeficiency virus 1; PBMC, average 2 donors
NL4.3 3F11 res = experiment: microbe, parasite or virus in culture; type: cell-based, HIV-1; conditions: Human immunodeficiency virus 1, TZM-bl, read-out: IC50 TZM-bl X4 NL4.3 3F11 res n = 3
HUT-78/HIV1 IIIb = experiment: HIV-1-mediated cell-cell fusion, HUT-78/IIIb with SupT1 cells; conditions: Human immunodeficiency virus 1, IIIB, read-out: IC50 syncytia formation SupT1 + HUT-78/IIIb n = 3
HIV-1 NL4.3 (X4) = experiment: HIV-1 NL4.3 infection of U87 cells; conditions: Human immunodeficiency virus 1, U-87 MG, read-out: IC50 U87 + NL 4.3 (X4) n = 3
HIV-1 X4 NL4.3 strain = experiment: HIV-1 NL4.3 infection of PHA-stimulated PBMCs, p24 Ag ELISA; type: cell-based
NL4.3 3F11 res. = experiment: microbe, parasite or virus in culture; type: cell-based, HIV-1; conditions: Human immunodeficiency virus 1, PBMC, read-out: IC50 PBMC NL4.3 3F11 res. n = 2
[4] = system: HIV-1 NL4.3 281F12-resistant virus; experiment: microbe, parasite or virus in culture; type: cell-based
[5] = system: dual-tropic (R5/X4) HIV-2 ROD strain; experiment: microbe, parasite or virus in culture; conditions: Human immunodeficiency virus 2, MT4, read-out: IC50 MT-4 HIV-2 ROD R5/X4 n = 3
[6] = system: HIV-1 NL4.3 3F11-resistant virus; experiment: microbe, parasite or virus in culture; type: cell-based
[7] = system: CXCR4-using (X4) HIV-1 clone NL4.3; experiment: microbe, parasite or virus in culture; type: cell-based
[8] = system: HIV-1 X4 UG270 clinical isolate (clade D); experiment: HIV-1 UG270 infection of PBMCs, p24; type: cell-based; conditions: Human immunodeficiency virus 1; PBMC, average 2 donors
[9] = system: HIV-1 CM237 clinical isolate (clade B); experiment: HIV-1 CM237 infection of PBMCs, p24; type: cell-based; conditions: Human immunodeficiency virus 1; PBMC, average 2 donors
NL4.3 281F12 res = experiment: microbe, parasite or virus in culture; type: cell-based, HIV-1; conditions: Human immunodeficiency virus 1, TZM-bl, read-out: IC50 TZM-bl X4 NL4.3 281F12 res n = 3
[10] = system: CXCL-12 res. HIV-1 NL4.3 variant; experiment: microbe, parasite or virus in culture; type: cell-based; conditions: Human immunodeficiency virus 1, MT4, read-out: IC50 MT-4 CXCL-12 res.
X4 HIV-1 NL4.3 WT = experiment: TZM-bl luciferase assay, NL4.3 WT; type: cell-based; conditions: Human immunodeficiency virus 1, TZM-bl, read-out: IC50 TZM-bl X4 NL4.3 WT n = 4

c1cc(CN2CCCNCCNCCCNCC2)ccc1CN1CCCNCCNCCCNCC1 [AMD3100, plerixafor]
IC50 (HUT-78/HIV-1 NL4.3; Human immunodeficiency virus 1, HuT78, read-out: IC50 cell-cell fusion): 1.1 µM | IC50 (HUT-78/HIV-1 NL4.3; Human immunodeficiency virus 1, read-out: IC50 syncytia formation SupT1 + HUT-78/NL4.3 n = 4): 1.12 µM | IC50 (NL4.3 281F12 res.): 0.057 µM | IC50 (AMD3100 resistant virus): 0.404 µM | IC50 [1]: 0.026 µM | IC50 [2]: 0.0039 µM | IC50 [3]: 0.022 µM | IC90 [3]: 0.047 µM | IC50 (NL4.3 3F11 res): 0.915 µM | IC50 (HUT-78/HIV1 IIIb): 22 µM | IC50 (HIV-1 NL4.3 (X4)): 0.01 µM | IC50 (HIV-1 X4 NL4.3 strain; Human immunodeficiency virus 1, PBMC, read-out: IC50 PBMC + NL 4.3 (X4) n = 3, Table 8.1.1): 0.0045 µM | IC50 (HIV-1 X4 NL4.3 strain; Human immunodeficiency virus 1, PBMC, read-out: IC50 PBMC NL4.3 WT n = 10, Table 8.3): 0.0045 µM | IC50 (HIV-1 X4 NL4.3 strain; Human immunodeficiency virus 1, PBMC, read-out: IC50 PBMC NL4.3 X4 n = 10, Table 8.1.2): 0.0033 µM | IC50 (HIV-1 X4 NL4.3 strain; Human immunodeficiency virus 1, PBMC, read-out: IC50 HIV-1 NL4.3 in PBMC): 0.0033 µM | IC90 (HIV-1 X4 NL4.3 strain; Human immunodeficiency virus 1, PBMC, average 2 donors): 0.042 µM | IC50 (HIV-1 X4 NL4.3 strain; Human immunodeficiency virus 1, PBMC, average 2 donors, read-out: IC50 NL4.3 X4): 0.013 µM | IC50 (NL4.3 3F11 res.): 0.02 µM | IC50 ([4]; Human immunodeficiency virus 1, MT4, read-out: IC50 MT-4 281F12 res.): 0.399 µM | IC50 ([4]; Human immunodeficiency virus 1, MT4, read-out: IC50 against HIV-1 NL4.3 281F12res virus): 400 nM and 0.317 µg/mL | IC50 [5]: 0.0211 µM | IC50 ([6]; Human immunodeficiency virus 1, MT4, read-out: IC50 MT-4 3F11 res.): 0.0185 µM | IC50 ([6]; Human immunodeficiency virus 1, MT4, read-out: IC50 against HIV-1 NL4.3 3F11res virus): 18 nM and 0.014 µg/mL | IC50 ([7]; Human immunodeficiency virus 1, MT4, read-out: IC50 MT-4 + NL 4.3 (X4) n = 3): 0.00475 µM | IC50 ([7]; Human immunodeficiency virus 1, MT4, read-out: IC50 MT-4 NL4.3 X4 n = 3): 0.00428 µM | IC50 ([7]; Human immunodeficiency virus 1, MT4, read-out: IC50 MT-4 NL4.3 wt): 0.00428 µM | IC50 ([7]; Human immunodeficiency virus 1, MT4, read-out: IC50 X4 NL4.3 strain in MT-4 cells): 0.00626 µM | IC50 [8]: 0.016 µM | IC90 [8]: 0.041 µM | IC50 [9]: 0.01 µM | IC90 [9]: 0.024 µM | IC50 (NL4.3 281F12 res): 4.92 µM | IC50 [10]: 0.0503 µM | IC50 (X4 HIV-1 NL4.3 WT): 0.411 µM
